{"source": "a melting point compilation (Tetko et al.; mined from patent text by program, amines drawn as free bases though some values may be those of a salt)"}
{"units": {"melting point": "°C"}}
{"molecule": "CCOC(=O)C1[C@@H]2[C@@H](O)[C@@H]3O[C@H](c4ccc(OC)cc4)OC[C@H]3O[C@H]12", "note": "(stereo partly drawn)", "melting point": "118 to 120"}
{"molecule": "N#Cc1ccc(SC2SCC(O)C(O)C2O)cc1", "note": "(stereo not drawn)", "melting point": 175}
{"molecule": "CCOC(=O)C1(CC(=O)O)N=C(c2ccc(Cl)cc2)c2c(sc(C)c2C)-n2c(C)nnc21", "note": "(stereo not drawn)", "melting point": "198 to 202"}
{"molecule": "CS(=O)(=O)c1ccc(-c2[nH]c(I)cc2-c2ccc(F)cc2)cc1", "melting point": "229 to 231"}
{"molecule": "NC(c1ccc2ccccc2c1)P(O)O", "note": "(stereo not drawn)", "melting point": "237 to 239"}
{"molecule": "Nc1sc(-c2ccc(Cl)cc2)c(CN(C2CCCCC2)C2CCCCC2)c1C(=O)c1ccc(Cl)cc1", "melting point": "200 to 204"}
{"molecule": "CN1CCN(S(=O)(=O)c2cccc(NC(=O)c3cnn4c(C(F)F)cc(-c5ccc(Cl)cc5)nc34)c2)CC1", "melting point": 147}
{"molecule": "O=C1c2c(Cl)cccc2-n2cnc(-c3nc(CN4CCCC4)cs3)c2[C@@H]2CCCN12", "melting point": "213 to 214"}
{"molecule": "CC1(C)OC(C=Cc2ccc(Cl)c(Cl)c2)=CC1=O", "melting point": "100 to 102"}
{"molecule": "C=C1SC(=S)N(c2cccc3c(-c4ccc(OC)c(C56CC7CC(CC(C7)C5)C6)c4)cccc23)C1=O", "melting point": "322 to 324"}
{"molecule": "COc1cc2nc(N3CCN(c4ccnc(Cl)n4)CC3)nc(N)c2cc1OC", "melting point": 266}
{"molecule": "NNC(=O)c1ncc2[nH]c3ccccc3c2n1", "melting point": "> 340"}
{"molecule": "Cn1ncc(C(=O)N2CCC2)c1C(=O)Nc1ccn2nc(-c3ccncc3)nc2c1", "melting point": "> 250"}
{"molecule": "OC(c1ccccc1)(c1ccc(Oc2ccccc2)cc1)c1ccccn1", "note": "(stereo not drawn)", "melting point": 114}
{"molecule": "CC1(C#N)CCCc2nc(-c3ccccc3)ccc21", "note": "(stereo not drawn)", "melting point": "114 to 116"}
{"molecule": "COCC1CN(c2ccc3cc(OCc4ccccc4)ccc3c2)C(=O)O1", "note": "(stereo not drawn)", "melting point": 150}
{"molecule": "CCCN(CCCCc1c[nH]c2ccc(F)cc12)C1COc2c(F)ccc(C(=O)NC)c2C1", "note": "(stereo not drawn)", "melting point": 110}
{"molecule": "O=C1c2ccccc2-c2c1nc(Cl)c1ccccc21", "melting point": "242 to 244"}
{"molecule": "C=C(Cl)CC(C#N)(C#N)Cc1ccc(Cl)cc1", "melting point": 85.5}
{"molecule": "Cc1cc(C(=O)O)nn1CC(=O)Nc1ccccc1", "melting point": "273 to 275"}
{"molecule": "CCNc1nc(-c2ccc(F)cc2C)c2ccc(=O)n(-c3c(F)cccc3F)c2n1", "melting point": "195 to 196"}
{"molecule": "COc1cc(OC)c2c(=O)cc(-c3ccccc3Cl)oc2c1C1CCN(C)C1C(=O)O", "note": "(stereo not drawn)", "melting point": "165 to 167"}
{"molecule": "O=C(COc1cccc(CCNS(=O)(=O)c2ccc(Cl)cc2)c1)N1CCOCC1", "melting point": "110 to 111"}
{"molecule": "CS(=O)(=O)NC(=O)C1(CCCCCCCCCCCCC2(C(=O)NS(C)(=O)=O)CC2)CC1", "melting point": 148}
{"molecule": "Cc1ccc(-c2ccnc3c(C(=O)c4cccs4)cnn23)cc1NC(=O)OC(C)C", "melting point": "198 to 200"}
{"molecule": "CCCCCCCCCCCCCCCCCCOc1ccc(NC(=O)c2ccc(OC(C)=O)cc2)cc1", "melting point": 154}
{"molecule": "CCN(CC)C(=O)c1ccc(/C=C(\\C)c2ccc3c(c2)C(C)(C)CCC3(C)C)cc1", "melting point": "111 to 112"}
{"molecule": "O=C(O)c1cccc(CC2COc3ccc(OCc4ccccc4)cc3C2)c1", "note": "(single isomer, unassigned; (+))", "melting point": "128 to 130"}
{"molecule": "O=C(O)c1ccc(C(F)(F)F)nc1C(F)(F)F", "melting point": "102 to 104"}
{"molecule": "CCCCc1nc2cccc(C(=O)O)c2n1Cc1ccc(-c2cncnc2-c2nnn[nH]2)cc1", "melting point": "209 to 212"}
{"molecule": "CNC(=O)Nc1snc(C)c1C(=O)OC", "melting point": "236 to 237"}
{"molecule": "CCOC(=O)C(Cc1cn(C)c2c(Cl)cccc12)(NC=O)C(=O)OCC", "melting point": "83 to 87"}
{"molecule": "CCOC(=O)C1=C(COCCNC(N)=S)NC(C)=C(C(=O)OC)C1c1cccc(Cl)c1Cl", "note": "(stereo not drawn)", "melting point": 198}
{"molecule": "CCC(C#N)Oc1cccc([N+](=O)[O-])c1Cl", "note": "(stereo not drawn)", "melting point": "69 to 71"}
{"molecule": "O=c1[nH]c2cc(Cl)ccc2c(=O)n1-c1ccccc1", "melting point": "> 300"}
{"molecule": "CC(C)n1c(CCC2C[C@@H](O)CC(=O)O2)c(-c2ccc(F)cc2)c(-c2ccccc2)c1C(=O)Nc1ccc(F)cc1", "note": "(stereo partly drawn)", "melting point": "98 to 99"}
{"molecule": "COc1cc(Nc2nccc(-c3nc4ccccc4s3)n2)cc(OC)c1OC", "melting point": "182 to 183"}
{"molecule": "O=C(O)c1cc2ccccc2n1Cc1cccc(Cl)c1", "melting point": "188 to 189"}
{"molecule": "CCCCOC(=O)c1cccc(-c2c3nn(-c4ccc(Cl)cc4)c(=O)c-3c[nH]c2C)c1", "melting point": "185 to 190"}
{"molecule": "CCN(CC)C(=O)COc1ccc(C(O)(CC)c2cccc(C(F)(F)F)c2)cc1", "note": "(stereo not drawn)", "melting point": "83 to 84"}
{"molecule": "COc1ccccc1N1CCN(C[C@@H](O)CN)CC1", "melting point": "76 to 80"}
{"molecule": "CN1CCN(NC(=O)Nc2cccc3c2C(=O)c2c-3n[nH]c2-c2ccc(N(C)C)cc2)CC1", "melting point": "> 300"}
{"molecule": "COc1cc(OC)cc(C(=CC#N)c2ccc(OC)c([N+](=O)[O-])c2)c1", "melting point": "122 to 124"}
{"molecule": "O=C(COc1cccc(CCNC(=O)OCc2ccccc2)c1)Nc1nnn[nH]1", "melting point": "164 to 167"}
{"molecule": "CC1(C)CC(O)(C(F)(F)F)C(Nc2cccc3[nH]c(=O)ccc23)c2cc(O)c(Cl)cc21", "note": "(stereo not drawn)", "melting point": 158}
{"molecule": "CC1CCCN1c1cc(F)cc(C(=O)Nc2ccc(OCCN3CCOCC3)c3ccccc23)c1", "note": "(stereo not drawn)", "melting point": "108 to 111"}
{"molecule": "CN(C(=O)c1ccc2nonc2c1)C1CCC(=NO)CC1", "note": "(stereo not drawn)", "melting point": "197 to 198"}
{"molecule": "COc1ccccc1NC(=O)Nc1nc(Oc2ccc3ccccc3c2)nc(N(CCC(=O)O)Cc2ccc(C)cc2)n1", "melting point": "202 to 205"}
{"molecule": "CCOC(=O)Cn1ncc(-c2ccccc2)c1-c1ccccc1", "melting point": "79 to 81"}
{"molecule": "CC12CC(N3CCCCC3)C(O)CC1CCC1C2CCC2(C)C(O)C(N3CCC4(CC3)OCCO4)CC12", "note": "(stereo not drawn)", "melting point": "183 to 185"}
{"molecule": "FC(F)(F)COc1cccc(-c2ccc3nnn(Cc4ccc5ncccc5c4)c3n2)c1", "melting point": "151 to 154"}
{"molecule": "COC(=O)c1ccc(NN=CC(F)(F)F)cc1S(=O)(=O)NC(=O)Nc1nc(OC)nc(OC)n1", "melting point": "117 to 119"}
{"molecule": "CCCN(CCC)C(=O)C(CCC(=O)NC)NC(=O)OCc1ccccc1", "note": "(stereo not drawn)", "melting point": "75 to 76"}
{"molecule": "CCNCCNc1ccc(NCCN(CC)CC)c2c1C(=O)c1c(O)ccc(O)c1C2=O", "melting point": "161 to 163"}
{"molecule": "CCOC(=O)c1cnn2c1c(N1CCN(c3ccccc3)CC1)nc1ccccc12", "melting point": "134 to 135"}
{"molecule": "Cc1cc(C(=O)CCc2cc(-c3ccc(C(F)(F)F)cc3)nn2C(C)C)ccc1OCC(=O)O", "melting point": "160 to 163"}
{"molecule": "O=Cc1cccc(C(CC2=NCCN2)c2ccccn2)c1", "note": "(stereo not drawn)", "melting point": "138 to 139"}
{"molecule": "CC1Cc2cc3c(cc2C(c2ccc([N+](=O)[O-])cc2)=NN1C(=O)Cc1ccccc1)OCO3", "note": "(stereo not drawn)", "melting point": "193 to 195"}
{"molecule": "CCN1C(=O)C(C)(C)C(=O)N(C)c2cc(CN(CCn3ccc4occc4c3=O)Cc3cc(C)nn3C)ccc21", "melting point": "161 to 165"}
{"molecule": "CC(C)C(=O)Nc1c(OCc2ccccc2)cc(Br)cc1[N+](=O)[O-]", "melting point": "197 to 198"}
{"molecule": "CC#CCOc1ccc(S(=O)(=O)C2(C(=O)O)CCN(Cc3ccc(Cl)c(Cl)c3)CC2)cc1", "melting point": 213}
{"molecule": "CCCc1nc2c(N)nc3ccccc3c2n1CCC(=O)OCC", "melting point": "156 to 157"}
{"molecule": "O=C(O)c1cccc2c(=O)cc(-c3cccc(OCc4ccccc4)c3)oc12", "melting point": "121 to 122"}
{"molecule": "Cn1c(C(F)(F)C(F)(F)F)cc(=O)n(-c2cc(C(=O)O)c(Cl)cc2F)c1=O", "melting point": "229 to 231"}
{"molecule": "NS(=O)(=O)c1cc2c(Cl)csc2s1", "melting point": "158 to 160"}
{"molecule": "CC(=O)SCCCn1cc(C2=C(c3cn(C)c4ccccc34)C(=O)NC2=O)c2ccccc21", "melting point": "210 to 213"}
{"molecule": "O=S(Cc1ccccc1)c1ccccc1", "note": "(stereo not drawn)", "melting point": "123 to 126"}
{"molecule": "COc1ccc(C(C)(C)C)cc1C(=O)c1cc([N+](=O)[O-])ccc1Cl", "melting point": "136 to 139"}
{"molecule": "CC(C)(Oc1ccc(CCC(O)c2ccc(-c3ccc(C(F)(F)F)cc3)s2)c(Cl)c1Cl)C(=O)O", "note": "(stereo not drawn)", "melting point": "54 to 56"}
{"molecule": "Cc1cc(C)cc(-c2cnn3c(-c4cccc(-c5nnn(CCN6CCCC6)n5)c4)ccnc23)c1", "melting point": 60}
{"molecule": "c1ccc2c(c1)Cn1cccc1C1CNCCN21", "note": "(stereo not drawn)", "melting point": "56 to 58"}
{"molecule": "O=c1c2c(Cl)cc(Cl)cc2n(Cc2ccccc2)c(=O)n1Cc1ccccc1", "melting point": "104 to 106"}
{"molecule": "Cc1ccccc1C(c1c[nH]cn1)c1ccccc1C", "melting point": "228 to 231"}
{"molecule": "O=C1Nc2ccc(F)cc2C1c1ncnc2c1cnn2C1CCCCC1", "note": "(stereo not drawn)", "melting point": "282 to 286"}
{"molecule": "COC(=O)c1c([N+](=O)[O-])c(OC)c2c(=O)[nH]c(C)nc2c1OC", "melting point": 225}
{"molecule": "COc1cc2c(cc1OC)CN(CC(O)c1ccc([N+](=O)[O-])cc1)CC2", "note": "(stereo not drawn)", "melting point": 130}
{"molecule": "Oc1ccc(-c2cccc(F)c2F)cc1", "melting point": "132 to 134"}
{"molecule": "Cc1cc(SC(C)C)c(NC(=O)CCCSc2nc3c(C)c(Cl)cc(C(C)C)c3o2)c(SC(C)C)n1", "melting point": "141 to 143"}
{"molecule": "COc1ccc(N2C(=O)C(Oc3ccccc3)C2c2ccc(C(=O)O)cc2)cc1", "note": "(stereo not drawn)", "melting point": 246}
{"molecule": "CCCc1cc(=O)oc2c(C(=O)CC)c(O)cc(O)c12", "melting point": "244 to 246"}
{"molecule": "COc1cc(OC)c(F)c(NCc2ccccc2)c1F", "melting point": "65 to 66"}
{"molecule": "S=c1nc2ccc(Br)cn2c(=S)n1-c1ccc(Br)cn1", "melting point": 77}
{"molecule": "CC(C)Oc1ccc(-c2nn(C(C)c3oc4cccc(N5CCOCC5)c4c(=O)c3-c3cccc(F)c3)c3ncnc(N)c23)cc1F", "note": "(stereo not drawn)", "melting point": "227 to 229"}
{"molecule": "C=CCC1(C(=O)NCCCC)c2ccccc2-c2ccccc21", "melting point": "62.5 to 64"}
{"molecule": "CCn1c2ccccc2c2cc(/C=C(\\C#N)c3cccnc3)ccc21", "melting point": "131 to 133"}
{"molecule": "COCCOc1cc2c(cc1C#Cc1ccccc1)NC(=O)CC(c1cccc(C#N)c1)=N2", "melting point": "174 to 176"}
{"molecule": "Cc1ccc2c(c1)C(OC(C)C)=C(C(=O)O)S2=O", "note": "(stereo not drawn)", "melting point": "184 to 187"}
{"molecule": "CC(C)C[C@H](NC(=O)[C@H](CC(=O)OC(C)(C)C)Cc1ccccc1)C(=O)N[C@@H](CC(C)C)[C@@H](O)c1nccs1", "melting point": "162 to 163"}
{"molecule": "Cc1ccc(S(=O)(=O)c2ccc3c(c2)c(CCNC(=O)OC(C)(C)C)cn3C)cc1", "melting point": "144 to 148"}
{"molecule": "Cc1cccc(Nc2ncnc3ccc(N)cc23)c1", "melting point": "205 to 206"}
{"molecule": "O=C1C(=Cc2cccc(C(F)(F)F)c2)SC(=S)N1N=c1sc2ccccc2s1", "melting point": "268 to 269"}
{"molecule": "CN(C)C(=O)c1cc(C(=O)O)c2cc(Cc3ccc(F)cc3)cnc2c1O", "melting point": "214 to 216"}
{"molecule": "CCc1c(-c2ccc(O)cc2)c2ccc3ccc(COCCN4CCCC4)c1n32", "melting point": "183 to 187"}
